According to patent US20150209315A1 (Cumberland Pharmaceuticals, priority 2009, published 2015):
Values joined by “and” are separate entries in the source; they are usually repeats but may differ in a detail not shown here. Equal entries are not always repeated.

Key:
[1] = test system: post-operative adult patients; test: Example 2: treatment failures; format: in vivo, human; conditions: 800 mg; ITT
Procedure: Eligible patients were randomized to one of the two treatment groups. All patients were able (but were not required) to receive morphine until approximately 45 minutes before the end of the surgical procedure. After that time, only fentanyl was allowed until the end of the operation. The first dose of ibuprofen was administered at approximately the initiation of skin closure. […] Other than ibuprofen or placebo, only morphine was administered for pain. […] Additional morphine could be administered at the discretion of the treating physician if adequate pain control had still not been achieved. Patients given non-morphine analgesics were classified as treatment failures. Treatment failures were not replaced. A treatment failure was defined as a patient that required narcotic pain medication, other than morphine, or non-narcotic medications including the use of another NSAID through the treatment period. If other narcotics (other than morphine) or NSAIDS were started, CTM was discontinued.

[2] = test system: post-operative adult patients; test: Example 2: time to GI motility, ambulation, liquid intake, solid diet, length of hospital stay; format: in vivo, human; conditions: 800 mg; for Time to GI motility: value + SD
Procedure: To evaluate the secondary objective of determining whether the addition of IVIb reduces the incidence of opioid related side-effects, the following endpoints were measured: (a) GI motility as assessed by return of bowel sounds, flatulence, or bowel movement (b) Combined Safety Assessment (occurrence of any of the following during the 48 hour treatment period received a rating of one: diffuse pruritus, overt respiratory depression requiring treatment; the combined total and individual incidences were evaluated), need for post-operative urinary indwelling catheter (after initial removal of surgical catheter), incidence of post-operative vomiting or need for anti-emetic medication, Richmond Agitation Sedation Scale (<−3), (c) Resumption of ambulation, (d) Resumption of liquid intake and solid diet, and (e) Length of hospital stay.

[3] = test system: post-operative adult patients; test: Example 2: morphine use in the 24 hours following abdominal hysterectomy surgery; format: in vivo, human; conditions: 800 mg; for Morphine Requirement, Mean (SD) / Morphine Requirement, Median: 24 hours following surgery; for Transformed Morphine Requirement, LSMeans (SE) / Transformed Morphine Requirement, Max / Transformed Morphine Requirement, Mean (SD) / Transformed Morphine Requirement, Median / Transformed Morphine Requirement, Min: Box Cox transformation
Procedure: To be eligible for this study, the patients met the following inclusion criteria: 1) scheduled for elective abdominal hysterectomy surgery with anticipated need for post-operative I.V. morphine analgesia with anticipated use of greater than 24 hours; 2) adequate IV access; and 3) anticipated hospital stay greater than 24 hours. The study exclusion criteria required patients only between the ages of 18 and 70 years old. […] Efficacy was measured by comparing the reduction in morphine use over the 24 hours immediately post surgery. Efficacy was measured by reduction in the requirement for the narcotic analgesic, morphine, in the 24 hours post surgery.
The Clinical Trial Material (“CTM”) was mixed in 250 mL normal saline. Saline was chosen as the control group (placebo) for this study, to ensure blinding and allow for analysis of treatment effect.
By protocol, patients were to be dosed every six hours for five doses, then as necessary (PRN) for pain every six hours for up to five days post surgery. However, after 24 hours through day 5, CTM had to be discontinued if there was a requirement for narcotic pain medication other than morphine or non-narcotic medications including the use of another NSAID. Further, after 24 hours through day 5, CTM may have been discontinued if there was resolution of pain, no IV access or discharge from the hospital.
The study participants were randomized based on criteria for an efficacy evaluable population (EEP) versus an intent to treat population (ITT). […] The intent-to-treat population (ITT) consists of AT patients who received at least one post-surgical dose of CTM or at least one dose of morphine for break-through pain. The efficacy evaluable population (EEP) consists of all ITT patients who received each of the first five doses of CTM within 60 minutes of the scheduled time and who have the 6-hour and 28-hour VAS with movement assessments.
Eligible patients were randomized to one of the two treatment groups. All patients were able (but were not required) to receive morphine until approximately 45 minutes before the end of the surgical procedure. After that time, only fentanyl was allowed until the end of the operation. […] Upon discharge from the operating room, patients had access to morphine (approximately 1-2 mg q 5 minutes) upon patient request or delivered by patient-controlled analgesia (PCA). […] Upon discharge from the operating room, patients had access to 1 mg morphine every 5 minutes upon request or by patient-controlled analgesia (PCA). […] Patients given non-morphine analgesics were classified as treatment failures. Treatment failures were not replaced.
Patients were evaluated and compared for morphine requirements between the active doses and placebo using analysis of variance and covariance procedures at an overall alpha level of 0.05. Secondary efficacy parameters were also evaluated and compared among the treatment groups using appropriate statistical methods described in the statistical analysis section of the protocol. Safety information was compared between the treatment groups using Chi-Square or Cochran-Mantel-Haenszel test. Demographic, background and baseline information among the treatment groups was also described.
The primary endpoint for the study was reduction in the requirement for morphine use in the 24 hours following surgery as measured by total morphine usage compared to placebo. Analysis of variance and covariance procedures were used to compare the reduction in the requirement for morphine use in the 24 hours following surgery among the treatment groups. Dunnet's test was used as a multiple comparison test to compare active dose groups with the placebo group at an overall alpha level of 0.05. In the primary model, center was introduced as a covariate.

[4] = cited from earlier work

Compound: CC(C)Cc1ccc(C(C)C(=O)O)cc1 (centres unmarked) [Ibuprofen, 2-(4-isobutylphenyl) propionic acid]
- treatment failures, number of patients [1]: 7
- treatment failures, percent of patients [1]: 4%
- Length of hospital stay ([2]; EEP): 62.8 ± 21.58
- Time to ambulation ([2]; EEP): 23.5 ± 0.53 h
- Time to liquid intake ([2]; EEP): 12.4 ± 0.89
- Time to solid diet ([2]; EEP): 39.1 ± 1.42 h
- Time to GI motility ([2]; EEP): 9.2+0.90 hours
- Length of hospital stay ([2]; ITT): 62.4 ± 21.01
- Time to ambulation ([2]; ITT): 23.4 ± 0.50 h
- Time to liquid intake ([2]; ITT): 12.1 ± 0.83
- Time to solid diet ([2]; ITT): 41.0 ± 2.46 h
- Time to ambulation ([2]; ITT, listed as IV Ibuprofen): significantly improved time to ambulation
- Time to GI motility ([2]; ITT): 9.4+0.87 hours
- Morphine Requirement, Max ([3]; Efficacy Evaluable): 143.3 mg
- Morphine Requirement, Min ([3]; Efficacy Evaluable): 4.0 mg
- Morphine Requirement, Mean (SD) ([3]; Efficacy Evaluable): 45.5 mg and 45.5 (24.6) mg
- Morphine Requirement, Median ([3]; Efficacy Evaluable): 42.0 mg
- Transformed Morphine Requirement, LSMeans (SE) ([3]; Efficacy Evaluable): 10.8 (0.3) mg
- Transformed Morphine Requirement, Max ([3]; Efficacy Evaluable): 21.2 mg
- Transformed Morphine Requirement, Mean (SD) ([3]; Efficacy Evaluable): 10.7 (3.5) mg
- Transformed Morphine Requirement, Median ([3]; Efficacy Evaluable): 10.7 mg
- Transformed Morphine Requirement, Min ([3]; Efficacy Evaluable): 2.0 mg
- Morphine Requirement, Max ([3]; Intent-to-Treat): 143.3 mg
- Morphine Requirement, Min ([3]; Intent-to-Treat): 4.0 mg
- Morphine Requirement, Mean (SD) ([3]; Intent-to-Treat): 47.3 mg and 47.3 (25.6) mg
- Morphine Requirement, Median ([3]; Intent-to-Treat): 43.5 mg
- Transformed Morphine Requirement, LSMeans (SE) ([3]; Intent-to-Treat): 12.1 (0.4) mg
- Transformed Morphine Requirement, Max ([3]; Intent-to-Treat): 23.5 mg
- Transformed Morphine Requirement, Mean (SD) ([3]; Intent-to-Treat): 11.8 (4.0) mg
- Transformed Morphine Requirement, Median ([3]; Intent-to-Treat): 11.8 mg
- Transformed Morphine Requirement, Min ([3]; Intent-to-Treat): 2.0 mg
- solubility in water [4]: very poorly soluble in water
